Tests used:
[1] = system: Alternaria mali; assay: Alternaria mali test (in vitro)/microtitre plates; format: cell-based; settings: 3 ppm, after 4 d
Protocol: (§1) The microtest is carried out in microtitre plates using potato dextrose broth PDB) as liquid test medium. The active compounds are applied as technical-grade a.i., dissolved in acetone. A spore suspension of Alternaria mali is used for inoculation. After 4 days of incubation in the dark and with shaking (10 Hz), the transparency in each filled cavity of the microtitre plates is determined with the aid of a spectrophotometer.
(§2) 0% means an efficacy which corresponds to the growth in the controls, whereas an efficacy of 100% means that no fungal growth is observed.

[2] = system: Myzus persicae; assay: Myzus persicae test, dipped cabbage leaves; format: in vivo; settings: 100 ppm, after 6 d
Protocol: The determined kill rates are calculated using Colby's formula (see sheet 1).

[3] = system: Phaedon cochleariae; assay: Phaedon cochleariae test, dipped cabbage leaves
[4] = system: Botrytis cinerea; assay: Botrytis cinerea test (in vitro)/microtitre plates; format: cell-based; settings: 3 ppm, after 5 d
Protocol: as §1, with “(PDB)” for “PDB)”, “Botrytis cinerea” for “Alternaria mali”, “5” for “4”
as §2

[5] = system: Plutella xylostella; assay: Plutella xylostella test, dipped cabbage leaves; format: in vivo; settings: after 6 d

Compound: Cc1nn(C)c(F)c1C(=O)Nc1ccccc1C(C)CC(C)C (stereo not drawn) [(1-2), N-[2-(1,3-dimethylbutyl)phenyl]-5-fluoro-1,3-dimethyl-1H-pyrazole-4-carboxamide]
- Kill rate in % after d, found [1]: 48%
- Kill rate in % after d, found [2]: 0%
- Kill rate in % after d, found ([3]; 100 ppm, after 4 d): 0%
- Kill rate in % after d, found ([3]; 100 ppm, after 6 d): 0%
- Efficacy in % after d, found [4]: 16%

Compound: CN/C(=N\[N+](=O)[O-])NCc1cnc(Cl)s1 [(2.1.1) clothianidin, clothianidin]
- Kill rate in % after d, found [1]: 8%
- Kill rate in % after d, found ([3]; 0.8 ppm, after 6 d): 0%
- Kill rate in % after d, found ([5]; 20 ppm): 20%

Compound: O=[N+]([O-])NC1=NCCN1Cc1ccc(Cl)nc1 [(2.1.2) imidacloprid, imidacloprid]
- Kill rate in % after d, found ([3]; 0.8 ppm, after 6 d): 40%
- Efficacy in % after d, found [4]: 3%
- Kill rate in % after d, found ([5]; 4 ppm): 20%

Compound: CNC(=O)Oc1cc(C)c(SC)c(C)c1 [(3.1.1) methiocarb, methiocarb]
- Kill rate in % after d, found [2]: 0%

Compound: CS/C(C)=N\OC(=O)N(C)SN(C)C(=O)O/N=C(\C)SC [(3.1.2) thiodicarb, thiodicarb]
- Kill rate in % after d, found ([3]; 100 ppm, after 4 d): 0%

Compound: N#Cc1nn(-c2c(Cl)cc(C(F)(F)F)cc2Cl)c(N)c1[S+]([O-])C(F)(F)F (stereo not drawn) [(6.2.1) fipronil, fipronil]
- Kill rate in % after d, found [2]: 65%

Compound: spinosad [(5.1.1) spinosad]
- Kill rate in % after d, found ([3]; 0.8 ppm, after 6 d): 80%
